In patent US12168003B2, “Selective inhibition of T follicular helper cells for treatment of autoimmune disorders” (priority 2019, dated 2024):

What was measured:
pre-existing TFH cells = test: OVA/Alum immunization, 4EGI-1 after formation of TFH cells; assay type: in vivo, mouse
Procedure: OVA protein (Sigma A5503) was diluted in PBS and then in 20 mg/mL Imject Alum (ThermoFisher 77161) and mixed at room temperature for 30 minutes prior to i.p. injection of 100 μg OVA in 200 μL. When stated, mice were treated i.p. daily from day 0 to 6 or day 0 to 13 (just for TFR analysis) following OVA/Alum immunization with 25 mg/kg 4EGI-1 (MedChemExpress) or from day 7 to 13 following OVA/Alum immunization with 50 mg/kg or 75 mg/kg 4EGI-1. Vehicle control mice were administered 6 μL DMSO in 194 μL PBS i.p.
PVDF-coated 96-well plates (Millipore) were activated with methanol for 2 minutes, washed with PBS, and coated with 4 μg/mL OVA overnight at 4° C. Plates were blocked with 1% BSA for 2 hours at 37° C. prior to incubation with 1×10^7 splenocytes in RPMI containing 2% Ultra-low IgG FCS, 55 μM 2ME, and 100 U/mL penicillin and 100 μg/mL streptomycin in the top well. Cells were diluted by 1/2 each row going down the plate and incubated immobile overnight at 37° C. Plates were washed with water+0.05% Tween 20 for 5 min prior to 3 washes in PBS+0.05% Tween-20 for 10 minutes. Plates were incubated with 1:1000 HRP-coupled goat anti-mouse IgG1 antibody (Southern Biotech) in PBS+0.05% Tween 20 for 2 h prior to 3 washes in PBS+0.05% Tween 20 and incubation in tetramethylbenzidine (TMB) ELISA substrate buffer (ThermoFisher). Plates were washed once in distilled deionized water and spots were manually enumerated and antibody-secreting cells (ASC) per million splenocytes was determined.
(§1) For quantification of OVA-specific IgG1, high-binding 96-well plates (Costar) were coated with 10 μg/mL OVA protein. For S. aureus-specific IgG1, plates were coated with heat-killed S. aureus (heat-killed at 80° C. for 30 min). For total IgE, plates were coated with 2 μg/mL rat anti-mouse IgE (Southern Biotech). Following overnight incubation at 4° C., plates were blocked with 1% BSA for 30 min at 37° C. After blocking, serum (diluted 1/20 initially then 1/2 down the plate) was incubated at 37° C. for 2 hours, plates were washed 3 times in PBS and then incubated with 1:1000 anti-mouse IgG1-HRP (Southern Biotech) or anti-mouse IgE-HRP (Southern Biotech) for 1 hour at 37° C. Plates were washed 3 times in PBS and incubated with TMB substrate. Following development, TMB Stop Solution (BioLegend®) was added and plates were read at […].

TH1 and TH17 cells = test: S. aureus sub-dermal ear pinnae infection model; assay type: in vivo, mouse
Procedure: S. aureus subspecies Rosenbach (ATCC 25923) was grown overnight in TSB broth (Corning). Following quantification, 1×10^8 CFU of S. aureus in 100 μL were injected subdermal in the base of the ear pinnae. On days 0 through 7, mice were treated daily with i.p. 25 mg/kg 4EGI-1 or vehicle. On day 8, mice were euthanized and the whole infected ear was collected along with the cervical lymph node (CLN) and blood. Blood was allowed to clot at room temperature, spun at 2,000×g for 30 minutes, and serum was collected and frozen until analysis. Ear thickness was measured with a digital caliper on day 8.
Spleens, draining lymph nodes, and brains were dissociated with the plunger-end of a syringe and passed through a 70 μm nylon filter. Splenocytes were subject to RBC lysis with ACK (Ammonium-Chloride-Potassium). Ears were subject to mechanical dissociation with scissors prior to incubation in 1 mL PBS in a 48-well plate with 100 μg/mL Liberase TL and 20 μg/mL DNase I for 1.5 hours at 37° C. Following incubation, cells were further dissociated by passing through a syringe, quenched with PBS+2% FCS, and filtered through a 70 μm nylon filter. Lungs were mechanically dissociated with a razor blade and incubated in a 6 cm dish with 5 mLs RPMI containing 250 μg/mL collagenase, 50 μg/mL Liberase TL, 1 mg/mL hyaluronidase, and 200 μg/mL DNase I for 30 minutes. Following incubation, cells quenched with PBS+2% FCS, and filtered through a 70 μm nylon filter. Ear and lung cells were subject to lymphocyte isolation using a gradient (Lymphocyte Separation Medium; Cellgro). Vertebral columns were flushed with PBS through a 19-gauge needle to remove intact spinal cords. Spinal cords were subject to mechanical dissociation with scissors and incubation in 1 mL PBS with 200 μg/mL DNase I and 50 μg/mL Liberase TL for 30 minutes at 37° C. Following incubation, cells were quenched with PBS+2% FCS and filtered through a 70 μm nylon filter.
Single cell suspensions of noted tissues were resuspended in T cell media with 1× PMA/Ionomycin (cell activation cocktail; BioLegend®) and 1× brefeldin A (BioLegend®) for 5-6 hours at 37° C. Following stimulation, cells were incubated with a live/dead viability marker and extracellular stain prior to fix and permeabilization with Fixation/Permeabilization Solution kit (BD Biosciences) according to manufacturer's instructions to detect intracellular cytokines IL-17A, IFN-γ, or IL-13. Concentration and clones of flow cytometry antibodies used for staining detailed in Table 2.
as §1

[1] = system: differentiated TH1, TH2 or TH17 cells; test: In vitro CD4+ T cell differentiation and cytokine production; assay type: cell-based, mouse; settings: 20 μM 4EGI-1, 48 hours
Procedure: Naïve CD4^+ T cells were isolated (EasySep™ Naïve CD4^+ T cell isolation; StemCell) and incubated in mouse T cell media (described under “Silencing of eIF4E in OT2 T cells by lentivirus transduction section”) containing soluble 1 μg/mL anti-CD28, cytokines, and anti-cytokine antibodies as detailed for polarization to TH1: 10 ng/mL mouse IL-12, 50 U/mL human IL-2, 10 μg/mL anti-mouse IL-4; TH2: 10 ng/mL mouse IL-4, 50 U/mL human IL-2, 10 μg/mL anti-mouse IFN-γ; TH17: 20 ng/mL mouse IL-6, 10 ng/mL mouse IL-23, 10 ng/mL mouse IL-113, 2 ng/mL human TGF-β1, 50 U/mL human IL-2 […], 10 μg/mL anti-mouse IFN-γ; and Treg: 2 ng/mL mouse TGFβ, 300 U/mL human IL-2. TH1, TH2, and TH17 differentiation kits (Cytobox) along with human IL-2 were purchased from Miltenyi Biotec. Mouse TGFβ was purchased from BioLegend®. Naïve CD4^+ T cells in conditions described above were activated on 10 μg/mL anti-CD3 coated plates for 3 days. Following differentiation, 20 μM 4EGI-1 was added to T cell cultures for 48 hours. Supernatant was removed and cytokine levels were determined using LEGENDPlex Mouse Th Cytokine Panel (BioLegend®).

[2] = 75 mg/kg, day 7 to 13 after OVA/Alum
[3] = 4EGI-1 day 7 to 13 after OVA/Alum

**Q.** How did the “reduction of CD4+ T cell protein synthesis (SUnSET)” value (pre-existing TFH cells; [2]) turn out when `O=C(O)C(Cc1ccccc1[N+](=O)[O-])=NNc1nc(-c2ccc(Cl)c(Cl)c2)cs1` (mixture of isomers) [4EGI-1] was run?
**A.** approximately half

**Q.** And the “total number of CD4+ T cells in spleen” value (pre-existing TFH cells; [2])?
**A.** without significantly reducing

**Q.** What about the “reduction of levels of GC B cells” value (pre-existing TFH cells; [3]) of the same molecule?
**A.** 3 fold

**Q.** And the “reduction of levels of OVA-specific IgG1 ASC cells” value (pre-existing TFH cells; [3])?
**A.** 3 fold

**Q.** And the “reduction of levels of pre-existing splenic CD4+ TFH cells” value (pre-existing TFH cells; [3])?
**A.** 3 fold

**Q.** And the “serum OVA-specific IgG1 antibody” value (pre-existing TFH cells; [3])?
**A.** moderately reduced

**Q.** What about the “differentiation or effector function of TH1 cells (T-bet+ or IFN-γ+) in the skin” value (TH1 and TH17 cells; 25 mg/kg daily i.p., day 8) of the same molecule?
**A.** no effect

**Q.** And the “differentiation or effector function of TH17 cells (RORγT+ or IL17A+) in the skin” value (TH1 and TH17 cells; 25 mg/kg daily i.p., day 8)?
**A.** no effect

**Q.** And the “general skin inflammation (ear thickness and skin neutrophil levels)” value (TH1 and TH17 cells; 25 mg/kg daily i.p., day 8)?
**A.** no effect

**Q.** And the “formation of GC B cells in draining lymph nodes” value (TH1 and TH17 cells; cervical lymph nodes, day 8)?
**A.** strongly reduced

**Q.** And the “formation of TFH cells in draining lymph nodes” value (TH1 and TH17 cells; cervical lymph nodes, day 8)?
**A.** strongly reduced

**Q.** And the “secretion of class-switched immunoglobulins” value (TH1 and TH17 cells; serum S. aureus-specific IgG1, day 8)?
**A.** strongly reduced

**Q.** What about the “secretion of IFN-γ or TNF-α by differentiated TH1 cells” value [1] of the same molecule?
**A.** not altered

**Q.** What about the “secretion of IL-13 by in vitro differentiated TH2 cells” value [1] of the same molecule?
**A.** did not affect

**Q.** What about the “secretion of IL-17A or IL-17F by differentiated TH17 cells” value [1] of the same molecule?
**A.** not altered
